± gives the expanded uncertainty stated by the source.
Legend:
[1] = molar heat capacity at constant pressure; conditions: 101.33 kPa, Liquid, Small sample (50 mg) DSC
[2] = Molar enthalpy of transition or fusion; conditions: Crystal; DSC
[3] = for viscosity / mass density: 101.33 kPa; for viscosity / mass density / surface tension liquid-gas: Liquid; for mass density: Vibrating tube method

## CCCCCC[n+]1ccc(C#N)cc1.O=S(=O)([N-]S(=O)(=O)C(F)(F)F)C(F)(F)F [1-hexyl-4-cyanopyridinium bis(trifluoromethylsulfonyl)imide]
[1]; 298.15 K
  molar heat capacity at constant pressure: 633 ± 64 J/K/mol
[1]; 323.15 K
  molar heat capacity at constant pressure: 643 ± 65 J/K/mol
[1]; 353.15 K
  molar heat capacity at constant pressure: 652 ± 66 J/K/mol
[2]
  Molar enthalpy of transition or fusion: 4.5 ± 0.139 kcal/mol
[3]; 293.15 K
  viscosity: 1065.6 ± 130 mPa·s
  mass density: 1411.6 ± 1.8 kg/m3
[3]; 298.15 K
  viscosity: 704.2 ± 76 mPa·s
  mass density: 1407.1 ± 1.8 kg/m3
  surface tension liquid-gas: 30.6 ± 0.92 mN/m
[3]; 303.15 K
  viscosity: 481.8 ± 44 mPa·s
  mass density: 1402.6 ± 1.8 kg/m3
[3]; 308.15 K
  viscosity: 340.3 ± 27 mPa·s
  mass density: 1398.1 ± 1.8 kg/m3
  surface tension liquid-gas: 30.25 ± 0.91 mN/m
[3]; 313.15 K
  viscosity: 235.8 ± 15 mPa·s
  mass density: 1393.6 ± 1.8 kg/m3
[3]; 318.15 K
  viscosity: 175.4 ± 9.1 mPa·s
  mass density: 1389.1 ± 1.7 kg/m3
  surface tension liquid-gas: 29.89 ± 0.9 mN/m
[3]; 323.15 K
  viscosity: 133.3 ± 5.5 mPa·s
  mass density: 1384.8 ± 1.7 kg/m3
[3]; 328.15 K
  viscosity: 103.3 ± 3.2 mPa·s
  mass density: 1380.5 ± 1.7 kg/m3
  surface tension liquid-gas: 29.48 ± 0.89 mN/m
[3]; 333.15 K
  viscosity: 81.7 ± 1.8 mPa·s
  mass density: 1376.1 ± 1.7 kg/m3
[3]; 338.15 K
  viscosity: 65.6 ± 1 mPa·s
  mass density: 1371.8 ± 1.7 kg/m3
  surface tension liquid-gas: 29.01 ± 0.88 mN/m
[3]; 343.15 K
  viscosity: 53.5 ± 0.6 mPa·s
  mass density: 1367.5 ± 1.7 kg/m3
[3]; 348.15 K
  viscosity: 44.3 ± 0.6 mPa·s
  mass density: 1363.2 ± 1.7 kg/m3
[3]; 353.15 K
  viscosity: 37.2 ± 0.5 mPa·s
  mass density: 1358.9 ± 1.7 kg/m3
[3]; 358.15 K
  viscosity: 31.5 ± 0.4 mPa·s
  mass density: 1354.6 ± 1.7 kg/m3
[3]; 363.15 K
  viscosity: 26.9 ± 0.4 mPa·s
  mass density: 1350.3 ± 1.6 kg/m3
[3]; Crystal, DTA
  Triple point temperature: 280.2 ± 1.1 K
[3]; DTA
  Glass transition temperature: -51.9 ± 2 °C

## CCCC[n+]1cccc(C#N)c1.O=S(=O)([N-]S(=O)(=O)C(F)(F)F)C(F)(F)F [1-butyl-3-cyanopyridinium bis(trifluoromethylsulfonyl)imide]
[1]; 298.15 K
  molar heat capacity at constant pressure: 586 ± 59 J/K/mol
[1]; 323.15 K
  molar heat capacity at constant pressure: 596 ± 60 J/K/mol
[1]; 353.15 K
  molar heat capacity at constant pressure: 605 ± 61 J/K/mol
[3]; 293.15 K
  viscosity: 1546.7 ± 220 mPa·s
  mass density: 1483.2 ± 12 kg/m3
[3]; 298.15 K
  viscosity: 983.7 ± 120 mPa·s
  mass density: 1478.7 ± 12 kg/m3
  surface tension liquid-gas: 32 ± 1.2 mN/m
[3]; 303.15 K
  viscosity: 659.7 ± 71 mPa·s
  mass density: 1474.2 ± 12 kg/m3
[3]; 308.15 K
  viscosity: 485.1 ± 46 mPa·s
  mass density: 1469.7 ± 12 kg/m3
  surface tension liquid-gas: 31.77 ± 1.2 mN/m
[3]; 313.15 K
  viscosity: 327.5 ± 26 mPa·s
  mass density: 1465.3 ± 12 kg/m3
[3]; 318.15 K
  viscosity: 240.7 ± 16 mPa·s
  mass density: 1460.8 ± 12 kg/m3
  surface tension liquid-gas: 31.59 ± 1.2 mN/m
[3]; 323.15 K
  viscosity: 182.6 ± 11 mPa·s
  mass density: 1456.3 ± 12 kg/m3
[3]; 328.15 K
  viscosity: 140.5 ± 6.9 mPa·s
  mass density: 1452 ± 12 kg/m3
  surface tension liquid-gas: 31.39 ± 1.2 mN/m
[3]; 333.15 K
  viscosity: 110.1 ± 4.5 mPa·s
  mass density: 1447.7 ± 12 kg/m3
[3]; 338.15 K
  viscosity: 87.9 ± 3 mPa·s
  mass density: 1443.4 ± 11 kg/m3
  surface tension liquid-gas: 31.09 ± 1.2 mN/m
[3]; 343.15 K
  viscosity: 67.6 ± 1.9 mPa·s
  mass density: 1439.1 ± 11 kg/m3
[3]; 348.15 K
  viscosity: 55.3 ± 1.4 mPa·s
  mass density: 1434.8 ± 11 kg/m3
[3]; 353.15 K
  viscosity: 45.8 ± 1.2 mPa·s
  mass density: 1430.5 ± 11 kg/m3
[3]; 358.15 K
  viscosity: 38.5 ± 1 mPa·s
  mass density: 1426.3 ± 11 kg/m3
[3]; 363.15 K
  viscosity: 32.8 ± 0.9 mPa·s
  mass density: 1422 ± 11 kg/m3
[3]; DTA
  Glass transition temperature: -54.4 ± 2 °C

From the NIST ThermoML archive (doi:10.1016/j.jct.2012.07.015)
